Results reported in publication PMC11945657, “Microwave-Assisted Synthesis of Morpholine-Based Chalcones as Reversible MAO-A Inhibitors in the Management of Mental Depression” (Pharmaceuticals, 2025).
Several values for one entry are separate records, joined by “and”; a condition that tells them apart may be missing. Equal values may be shown once. Read-outs that look alike come from different tables or passages of the source. Each block holds one molecule with its values, some of them ahead of it.

Tests used:
[1] = system: MAO-A; conditions: Figure 1, read-out: MAO-A inhibition, cited from earlier work
[2] = target: T1, hMAO-A (Homo sapiens, UniProt P21397); design: purchased Sigma-Aldrich; conditions: Figure 1, read-out: hMAO-A inhibition; cited from earlier work
T1 sequence (P21397 1-527): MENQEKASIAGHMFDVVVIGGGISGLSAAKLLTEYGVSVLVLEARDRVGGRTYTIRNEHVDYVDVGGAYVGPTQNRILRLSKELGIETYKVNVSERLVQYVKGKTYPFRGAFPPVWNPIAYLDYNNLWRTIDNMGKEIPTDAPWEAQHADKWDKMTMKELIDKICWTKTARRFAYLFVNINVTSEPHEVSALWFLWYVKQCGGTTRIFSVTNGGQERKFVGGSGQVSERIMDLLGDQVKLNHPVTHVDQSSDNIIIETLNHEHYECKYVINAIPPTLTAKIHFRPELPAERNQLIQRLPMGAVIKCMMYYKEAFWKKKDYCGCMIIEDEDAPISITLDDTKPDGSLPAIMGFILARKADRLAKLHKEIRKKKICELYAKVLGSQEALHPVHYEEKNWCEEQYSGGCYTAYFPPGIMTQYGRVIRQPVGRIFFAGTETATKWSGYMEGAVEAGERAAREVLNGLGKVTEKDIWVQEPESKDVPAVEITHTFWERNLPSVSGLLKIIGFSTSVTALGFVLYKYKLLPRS

[3] = DPPH free radical scavenging antioxidant assay; conditions: for antioxidant potential in the DPPH assay: concentration not given
Description: H2O2 produced during metabolic events in the brain may be crucial for signaling and metabolic functions. The compounds were screened to check their potential to inhibit ROS through the DPPH assay. […] However, further studies are required to confirm this effect.
The DPPH approach, which gauges the free radical scavenging activity, was used to evaluate the antioxidant properties of the compounds. The test was performed according to the literature method. The stock solution of DPPH (0.5 mM) was prepared, and methanol was used to create each dilution. The different concentrations (10, 25, 50, 75, and 100 μM) of the test compounds (C1–C15) were prepared and compared with the standard ascorbic acid. The percentage antioxidant activity of the compounds was calculated using the following formula: % Antioxidant activity = [(Aabsorbance − Atest)/Aabsorbance] × 100.

[4] = target: T1, hMAO-A; assay: Reversibility inhibition study (dilution method); assay type: biochemical; design: purchased Sigma-Aldrich; conditions: for reversibility of hMAO-A inhibition: dilution method
Description: Reversibility inhibition investigations were conducted using dilution methods as per the reported protocol, and all experiments were performed in triplicate. […] Substrate and buffer solutions were used for the dilution.

[5] = target: T1, hMAO-A; assay: MAO inhibition assay (Amplex Red, fluorimetric), MAO-A; conditions: for inhibition at 20 µM: read-out: Percentage Inhibition at 20 μM MAO-A, 20 μM
[6] = target: T2, hMAO-B (Homo sapiens, UniProt P27338); assay: MAO inhibition assay (Amplex Red, fluorimetric), MAO-B
T2 sequence (P27338 1-520): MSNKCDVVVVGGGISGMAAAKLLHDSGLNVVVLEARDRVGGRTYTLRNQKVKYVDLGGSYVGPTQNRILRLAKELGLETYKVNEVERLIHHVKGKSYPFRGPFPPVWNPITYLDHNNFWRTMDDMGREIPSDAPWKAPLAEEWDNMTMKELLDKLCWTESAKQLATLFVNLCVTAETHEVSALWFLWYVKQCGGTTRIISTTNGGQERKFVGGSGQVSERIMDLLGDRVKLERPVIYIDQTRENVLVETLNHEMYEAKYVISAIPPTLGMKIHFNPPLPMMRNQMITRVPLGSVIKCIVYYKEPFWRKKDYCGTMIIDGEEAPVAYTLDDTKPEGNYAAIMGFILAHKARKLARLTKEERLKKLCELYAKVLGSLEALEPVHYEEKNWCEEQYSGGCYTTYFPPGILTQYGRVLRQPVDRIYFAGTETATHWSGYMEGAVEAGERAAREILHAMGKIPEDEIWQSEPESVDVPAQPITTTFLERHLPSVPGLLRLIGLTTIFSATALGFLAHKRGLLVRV

[7] = 0.1 × IC50, after 100 times dilution with tyramine substrate
[8] = 1 × IC50, after 100 times dilution with tyramine substrate
[9] = read-out: Percentage Inhibition at 20 μM MAO-B

Compound: COc1cc(OC)c(/C=C/C(=O)c2ccc(Br)cc2)c(OC)c1 [Compound 1]
IC50 [1]: 0.56 ± 0.076 µM

Compound: CCOc1ccc(C(=O)/C=C/c2ccc(F)cc2)cc1 [Compound 2]
IC50 [2]: 4.63 ± 0.15 µM

Compound: O=C(/C=C/c1ccc(C(F)(F)F)cc1)c1ccc[nH]1 [Compound 3]
IC50 [1]: 3.81 ± 0.387 µM

Compound: COc1cc(OC)c(/C=C/C(=O)c2ccc(F)cc2)c(OC)c1 [Compound 4]
IC50 [1]: 0.444 ± 0.039 µM

Compound: COc1cc(C(=O)/C=C/c2ccc([N+](=O)[O-])cc2)cc(OC)c1OC [Compound 5]
Ki ([1]; Ki): 3.47 ± 0.09 µM

% MAO-A activity [4, 7]: 68.83%
% MAO-A activity [4, 8]: 38.95%
% MAO-A activity ([4]; 10 × IC50, before dilution): 8.32%
% MAO-A activity ([4]; 100 × IC50, before dilution): 3.41%
reversibility of hMAO-A inhibition [4]: reversibly inhibit
IC50 [5]: 8.45 ± 0.19 µM
Percentage Inhibition at 20 μM MAO-A [5]: 71.67%
inhibition at 20 µM [5]: 71.6%
inhibition at 20 µM ([6]; read-out: IC50 Values MAO-B): < 50%
inhibition at 20 µM [6, 9]: 31.9%
Compound: O=C(/C=C/c1ccc(F)c(F)c1)c1ccc(N2CCOCC2)cc1 [Compound C6, (E)-3-(3,4-Difluorophenyl)-1-(4-morpholinophenyl)prop-2-en-1-one]
% Antioxidant Activity ([3]; 10 µM): 12.25%
% Antioxidant Activity ([3]; 25 µM): 24.46%
% Antioxidant Activity ([3]; 50 µM): 36.03%
% Antioxidant Activity ([3]; 75 µM): 50% and 53.39%
% Antioxidant Activity ([3]; 100 µM): 55.16%
antioxidant potential in the DPPH assay [3]: more than 50%

% MAO-A activity [4, 7]: 65.33%
% MAO-A activity [4, 8]: 35.76%
% MAO-A activity ([4]; 10 × IC50, before dilution): 6.67%
% MAO-A activity ([4]; 100 × IC50, before dilution): 3.28%
reversibility of hMAO-A inhibition [4]: reversibly inhibit
IC50 [5]: 7.91 ± 0.08 µM
Percentage Inhibition at 20 μM MAO-A [5]: 75.45%
inhibition at 20 µM [5]: 75.4%
inhibition at 20 µM ([6]; read-out: IC50 Values MAO-B): < 50%
inhibition at 20 µM [6, 9]: 35.3%
Compound: O=C(/C=C/c1ccc(F)cc1F)c1ccc(N2CCOCC2)cc1 [Compound C14, (E)-3-(2,4-Difluorophenyl)-1-(4-morpholinophenyl)prop-2-en-1-one]
% Antioxidant Activity ([3]; 10 µM): 10.51%
% Antioxidant Activity ([3]; 25 µM): 18.21%
% Antioxidant Activity ([3]; 50 µM): 41.12%
% Antioxidant Activity ([3]; 75 µM): 50% and 53.12%
% Antioxidant Activity ([3]; 100 µM): 59.51%
antioxidant potential in the DPPH assay [3]: more than 50%
